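Growth conditions: 96-well plates. Treatment: test compound, 48 hours, 5 concentrations. Analysis: linear interpolation between bracketing concentrations; unreached endpoints set to highest concentration. The concentration for 50% growth inhibition is given as GI50.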 Activity calls are given as the source filed them. Rule as the data show it: active = GI50 up to about 1.1 µM and inactive = higher.
Columns and labels:
Assay in all cases: DTP human tumour cell line panel, 48 h
DU-145 = system: DU-145
UACC-62 = system: UACC-62
UACC-257 = system: UACC-257
SR = system: SR
786-0 = system: 786-0
SF-295 = system: SF-295
RPMI-8226 = system: RPMI-8226
SK-MEL-28 = system: SK-MEL-28
SN12C = system: SN12C
Hs-578T = system: Hs-578T
MDA-N = system: MDA-N
OVCAR-4 = system: OVCAR-4
SK-MEL-2 = system: SK-MEL-2
ACHN = system: ACHN
M14 = system: M14
MOLT-4 = system: MOLT-4
SNB-19 = system: SNB-19
NCI/ADR-RES = system: NCI/ADR-RES
MDA-MB-231 = system: MDA-MB-231
SW-620 = system: SW-620

SMILES | GI50 (DU-145) | GI50 (UACC-62) | GI50 (UACC-257) | GI50 (SR) | GI50 (786-0) | GI50 (SF-295) | GI50 (RPMI-8226) | GI50 (SK-MEL-28) | GI50 (SN12C) | GI50 (Hs-578T) | GI50 (MDA-N) | GI50 (OVCAR-4) | GI50 (SK-MEL-2) | GI50 (ACHN) | GI50 (M14) | GI50 (MOLT-4) | GI50 (SNB-19) | GI50 (NCI/ADR-RES) | GI50 (MDA-MB-231) | GI50 (SW-620)
COc1cc(/C=C(\C#N)c2nc3ccccc3o2)ccc1O | 25.6 µM (inactive) | 18.6 µM (inactive) | 23.5 µM (inactive) | 24.2 µM (inactive) | 24.9 µM (inactive) | 17.6 µM (inactive) | 21 µM (inactive) | 17.7 µM (inactive) | 34.7 µM (inactive) | 23.1 µM (inactive) | 23 µM (inactive) | 11.2 µM (inactive) | 18 µM (inactive) | 19 µM (inactive) | 13.6 µM (inactive) | 28.5 µM (inactive) | 32.4 µM (inactive) | 24.1 µM (inactive) | 21.8 µM (inactive) | 
O=C1CCC(NC(=O)c2ccccc2)C(=O)N1 (configuration not stated) | > 100 µM (inactive) | > 100 µM (inactive) | > 100 µM (inactive) | > 100 µM (inactive) | > 100 µM (inactive) | > 100 µM (inactive) | > 100 µM (inactive) | > 100 µM (inactive) | > 100 µM (inactive) | > 100 µM (inactive) | > 100 µM (inactive) | > 100 µM (inactive) | > 100 µM (inactive) | > 100 µM (inactive) | > 100 µM (inactive) | 2.97 µM (inactive) | > 100 µM (inactive) | > 100 µM (inactive) | > 100 µM (inactive) | > 100 µM (inactive)
C/C(=N\NC(=S)N(C)CCN(C)C(=S)N/N=C(\C)c1ccccn1)c1ccccn1 | 1.11 µM (active) | 2.31 µM (inactive) | 0.774 µM (active) | 0.697 µM (active) | > 100 µM (inactive) | 0.805 µM (active) | 1.37 µM (inactive) | 1.73 µM (inactive) | 1.05 µM (active) | 25.9 µM (inactive) | 3.71 µM (inactive) | 0.298 µM (active) | 10.1 µM (inactive) | 0.366 µM (active) | > 100 µM (inactive) | 0.479 µM (active) | 3.04 µM (inactive) | 0.346 µM (active) | 0.246 µM (active) | 0.662 µM (active)
CCN(CC)C(=O)CCN1CC1 | > 10 µM (inactive) | > 10 µM (inactive) | > 10 µM (inactive) | > 10 µM (inactive) | > 10 µM (inactive) | > 10 µM (inactive) | > 10 µM (inactive) | > 10 µM (inactive) | > 10 µM (inactive) | > 10 µM (inactive) | > 10 µM (inactive) | > 10 µM (inactive) | > 10 µM (inactive) | > 10 µM (inactive) | > 10 µM (inactive) | > 10 µM (inactive) | > 10 µM (inactive) | > 10 µM (inactive) | > 10 µM (inactive) | 
Cn1c2ccc(C3=NCCN3)cc2c2cc(C3=NCCN3)ccc21 | 26.4 µM (inactive) |  | 43.8 µM (inactive) | 18.2 µM (inactive) | 38.7 µM (inactive) | 42.8 µM (inactive) | 24.6 µM (inactive) | 24 µM (inactive) | 6.31 µM (inactive) | 10.7 µM (inactive) | 53.1 µM (inactive) | 13.6 µM (inactive) | 33.5 µM (inactive) | 37.9 µM (inactive) | 48.6 µM (inactive) | 0.637 µM (active) | 42.8 µM (inactive) | > 100 µM (inactive) | 41.2 µM (inactive) | 17.6 µM (inactive)
COc1ccc2nc3c([N+](=O)[O-])ccc4c3c(c2c1)N=CN4CCCN(C)C | 2.52 µM (inactive) | 6.24 µM (inactive) | 3.78 µM (inactive) | 0.125 µM (active) | 0.614 µM (active) | 2.55 µM (inactive) | 0.318 µM (active) | 10 µM (inactive) | 1.97 µM (inactive) | 7.28 µM (inactive) | 4.62 µM (inactive) | 1.65 µM (inactive) | 7.71 µM (inactive) | 0.743 µM (active) | 4.73 µM (inactive) | 0.23 µM (active) | 4.74 µM (inactive) | 2.32 µM (inactive) | 1.37 µM (inactive) | 0.44 µM (active)
COc1ccc(Nc2nc(N)c(C(=O)c3cccs3)s2)cc1 | 5.56 µM (inactive) | 11.3 µM (inactive) | 9.31 µM (inactive) | 0.682 µM (active) | 8.49 µM (inactive) | 10.9 µM (inactive) | 5.92 µM (inactive) | 31 µM (inactive) | 27.5 µM (inactive) | 11.5 µM (inactive) | 3.92 µM (inactive) | 9.73 µM (inactive) | 10.9 µM (inactive) | 12.2 µM (inactive) | 13.4 µM (inactive) | 2.51 µM (inactive) | 11 µM (inactive) | 10.7 µM (inactive) | 26.2 µM (inactive) | 5.45 µM (inactive)

Source: ChEMBL document CHEMBL1201862, “PubChem BioAssay data set” (2004)
